Molecular target: ISWI (Xenopus laevis, UniProt Q9DF71)
Type: binding

ISWI, sequence (Q9DF71 1-1046): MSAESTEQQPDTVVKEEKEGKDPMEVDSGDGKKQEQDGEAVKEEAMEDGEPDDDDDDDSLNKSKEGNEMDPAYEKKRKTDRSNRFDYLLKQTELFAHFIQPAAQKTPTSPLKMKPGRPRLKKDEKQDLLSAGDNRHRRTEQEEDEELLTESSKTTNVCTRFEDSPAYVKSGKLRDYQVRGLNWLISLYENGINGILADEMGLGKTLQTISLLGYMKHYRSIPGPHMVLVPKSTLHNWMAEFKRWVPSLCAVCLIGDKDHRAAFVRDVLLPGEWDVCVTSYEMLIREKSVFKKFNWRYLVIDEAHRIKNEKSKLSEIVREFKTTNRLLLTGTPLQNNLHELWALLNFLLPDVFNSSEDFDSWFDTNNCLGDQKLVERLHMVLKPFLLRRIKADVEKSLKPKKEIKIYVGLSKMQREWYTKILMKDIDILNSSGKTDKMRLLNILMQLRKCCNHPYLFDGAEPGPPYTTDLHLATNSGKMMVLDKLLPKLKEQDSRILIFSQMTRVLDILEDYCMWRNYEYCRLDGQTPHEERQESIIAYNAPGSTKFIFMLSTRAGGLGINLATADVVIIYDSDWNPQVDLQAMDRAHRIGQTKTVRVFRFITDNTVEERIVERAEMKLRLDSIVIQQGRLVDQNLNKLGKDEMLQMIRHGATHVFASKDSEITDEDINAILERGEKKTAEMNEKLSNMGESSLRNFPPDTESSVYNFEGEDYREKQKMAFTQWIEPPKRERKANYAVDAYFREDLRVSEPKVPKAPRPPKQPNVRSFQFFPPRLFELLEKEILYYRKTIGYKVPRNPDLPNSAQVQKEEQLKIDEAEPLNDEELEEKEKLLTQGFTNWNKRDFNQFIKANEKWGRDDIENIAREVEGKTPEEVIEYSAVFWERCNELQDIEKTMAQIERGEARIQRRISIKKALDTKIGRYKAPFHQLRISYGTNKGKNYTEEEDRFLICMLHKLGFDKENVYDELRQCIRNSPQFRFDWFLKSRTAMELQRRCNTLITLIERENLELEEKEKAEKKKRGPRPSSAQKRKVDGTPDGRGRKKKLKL

Kd: 140 ± 30 µM
SMILES: Nc1ncnc2c1ncn2[C@@H]1O[C@H](CO[P@](=O)(O)O[P@](=O)(O)O[P@@](=O)(O)S)[C@@H](O)[C@H]1O [ATP-γ-S]
